Results from the NIST ThermoML archive (doi:10.1021/je050020m).

Assay: xn = mol fraction of the nth substance listed
Settings: Liquid, Vibrating tube method

CCCCCCCCCC [decane] + O=C=O
Settings	mass density [kg/m3]
313.1 K, 2005 kPa, x2 = 0.0551	717.94
313.1 K, 3035 kPa, x2 = 0.0551	718.98
313.1 K, 4061 kPa, x2 = 0.0551	719.88
313.1 K, 5020 kPa, x2 = 0.2369	728.09
313.1 K, 5063 kPa, x2 = 0.0551	720.72
313.1 K, 6029 kPa, x2 = 0.0551	721.55
313.1 K, 6029 kPa, x2 = 0.2369	729.09
313.1 K, 7015 kPa, x2 = 0.2369	730.07
313.1 K, 7028 kPa, x2 = 0.0551	722.42
313.1 K, 7998 kPa, x2 = 0.0551	723.25
313.1 K, 8019 kPa, x2 = 0.2369	731.05
313.1 K, 9012 kPa, x2 = 0.2369	732.01
313.1 K, 9019 kPa, x2 = 0.0551	724.09
313.1 K, 10010 kPa, x2 = 0.0551	724.92
313.1 K, 10012 kPa, x2 = 0.2369	732.96
313.1 K, 11018 kPa, x2 = 0.2369	733.88
313.1 K, 11032 kPa, x2 = 0.0551	725.72
313.1 K, 12009 kPa, x2 = 0.2369	734.8
313.1 K, 12046 kPa, x2 = 0.0551	726.55
313.1 K, 13016 kPa, x2 = 0.2369	735.72
313.1 K, 13029 kPa, x2 = 0.0551	727.32
313.1 K, 14011 kPa, x2 = 0.0551	728.1
313.1 K, 14019 kPa, x2 = 0.2369	736.6
313.1 K, 15006 kPa, x2 = 0.2369	737.46
313.1 K, 15013 kPa, x2 = 0.0551	728.84
313.1 K, 15992 kPa, x2 = 0.0551	729.58
313.1 K, 16017 kPa, x2 = 0.2369	738.34
313.1 K, 16999 kPa, x2 = 0.0551	730.32
313.1 K, 17006 kPa, x2 = 0.2369	739.17
313.1 K, 18008 kPa, x2 = 0.2369	740.01
313.1 K, 18044 kPa, x2 = 0.0551	731.13
313.1 K, 19016 kPa, x2 = 0.2369	740.85
313.1 K, 19030 kPa, x2 = 0.0551	731.85
313.1 K, 19999 kPa, x2 = 0.0551	732.57
313.1 K, 20000 kPa, x2 = 0.2369	741.67
313.1 K, 21019 kPa, x2 = 0.2369	742.51
313.1 K, 21031 kPa, x2 = 0.0551	733.3
313.1 K, 22002 kPa, x2 = 0.2369	743.29
313.1 K, 22015 kPa, x2 = 0.0551	734
313.1 K, 23007 kPa, x2 = 0.2369	744.12
313.1 K, 23023 kPa, x2 = 0.0551	734.74
313.1 K, 24008 kPa, x2 = 0.2369	744.96
313.1 K, 24060 kPa, x2 = 0.0551	735.5
313.1 K, 25013 kPa, x2 = 0.2369	745.78
313.1 K, 25026 kPa, x2 = 0.0551	736.2
313.11 K, 7015 kPa, x2 = 0.4536	742.3
313.11 K, 8024 kPa, x2 = 0.4536	743.57
313.11 K, 9021 kPa, x2 = 0.4536	744.82
313.11 K, 10024 kPa, x2 = 0.4536	746.02
313.11 K, 11020 kPa, x2 = 0.4536	747.22
313.11 K, 11029 kPa, x2 = 0.9663	714.21
313.11 K, 12022 kPa, x2 = 0.4536	748.39
313.11 K, 12037 kPa, x2 = 0.9663	738.68
313.11 K, 13012 kPa, x2 = 0.4536	749.55
313.11 K, 13049 kPa, x2 = 0.9663	758.54
313.11 K, 14017 kPa, x2 = 0.4536	750.69
313.11 K, 14020 kPa, x2 = 0.9663	774.43
313.11 K, 15013 kPa, x2 = 0.9663	788.48
313.11 K, 15020 kPa, x2 = 0.4536	751.81
313.11 K, 16007 kPa, x2 = 0.9663	800.98
313.11 K, 16020 kPa, x2 = 0.4536	752.93
313.11 K, 17013 kPa, x2 = 0.4536	753.99
313.11 K, 17027 kPa, x2 = 0.9663	812.43
313.11 K, 17984 kPa, x2 = 0.9663	822.21
313.11 K, 18019 kPa, x2 = 0.4536	755.06
313.11 K, 19014 kPa, x2 = 0.4536	756.08
313.11 K, 19037 kPa, x2 = 0.9663	832.11
313.11 K, 20002 kPa, x2 = 0.9663	840.48
313.11 K, 20018 kPa, x2 = 0.4536	757.13
313.11 K, 21015 kPa, x2 = 0.9663	848.66
313.11 K, 21018 kPa, x2 = 0.4536	758.18
313.11 K, 22006 kPa, x2 = 0.4536	759.18
313.11 K, 22023 kPa, x2 = 0.9663	856.28
313.11 K, 23003 kPa, x2 = 0.4536	760.18
313.11 K, 23021 kPa, x2 = 0.9663	863.4
313.11 K, 24023 kPa, x2 = 0.4536	761.23
313.11 K, 24063 kPa, x2 = 0.9663	870.36
313.11 K, 24976 kPa, x2 = 0.9663	876.18
313.11 K, 25010 kPa, x2 = 0.4536	762.23
313.12 K, 12053 kPa, x2 = 0.8114	782.82
313.12 K, 13017 kPa, x2 = 0.8114	785.68
313.12 K, 14021 kPa, x2 = 0.8114	788.54
313.12 K, 15103 kPa, x2 = 0.8114	791.51
313.12 K, 15990 kPa, x2 = 0.8114	793.84
313.12 K, 16981 kPa, x2 = 0.8114	796.39
313.12 K, 17993 kPa, x2 = 0.8114	798.92
313.12 K, 19038 kPa, x2 = 0.8114	801.45
313.12 K, 20009 kPa, x2 = 0.8114	803.73
313.12 K, 21018 kPa, x2 = 0.8114	806.06
313.12 K, 22020 kPa, x2 = 0.8114	808.29
313.12 K, 22999 kPa, x2 = 0.8114	810.42
313.12 K, 24019 kPa, x2 = 0.8114	812.6
313.12 K, 25017 kPa, x2 = 0.8114	814.7
323.04 K, 11016 kPa, x2 = 0.9663	580.54
323.04 K, 12005 kPa, x2 = 0.8114	762.12
323.04 K, 12030 kPa, x2 = 0.9663	636.15
323.04 K, 13009 kPa, x2 = 0.8114	765.56
323.04 K, 13015 kPa, x2 = 0.9663	672.02
323.04 K, 14007 kPa, x2 = 0.9663	698.83
323.04 K, 14026 kPa, x2 = 0.8114	769
323.04 K, 15008 kPa, x2 = 0.8114	772.02
323.04 K, 15021 kPa, x2 = 0.9663	721.04
323.04 K, 16018 kPa, x2 = 0.9663	739.12
323.04 K, 16046 kPa, x2 = 0.8114	775.13
323.04 K, 17018 kPa, x2 = 0.8114	777.99
323.04 K, 17026 kPa, x2 = 0.9663	754.76
323.04 K, 18002 kPa, x2 = 0.8114	780.75
323.04 K, 18010 kPa, x2 = 0.9663	768.22
323.04 K, 19001 kPa, x2 = 0.9663	780.23
323.04 K, 19025 kPa, x2 = 0.8114	783.58
323.04 K, 20025 kPa, x2 = 0.9663	791.43
323.04 K, 20031 kPa, x2 = 0.8114	786.22
323.04 K, 21021 kPa, x2 = 0.9663	801.33
323.04 K, 21047 kPa, x2 = 0.8114	788.86
323.04 K, 21988 kPa, x2 = 0.8114	791.16
323.04 K, 22023 kPa, x2 = 0.9663	810.55
323.04 K, 22999 kPa, x2 = 0.8114	793.66
323.04 K, 23026 kPa, x2 = 0.9663	819.05
323.04 K, 24016 kPa, x2 = 0.8114	796.11
323.04 K, 24036 kPa, x2 = 0.9663	827.07
323.04 K, 25030 kPa, x2 = 0.9663	834.47
323.04 K, 25054 kPa, x2 = 0.8114	798.55
323.05 K, 1989 kPa, x2 = 0.0551	710.33
323.05 K, 3015 kPa, x2 = 0.0551	711.28
323.05 K, 3984 kPa, x2 = 0.0551	712.18
323.05 K, 5002 kPa, x2 = 0.0551	713.14
323.05 K, 6010 kPa, x2 = 0.0551	714.04
323.05 K, 7043 kPa, x2 = 0.0551	714.97
323.05 K, 8018 kPa, x2 = 0.0551	715.86
323.05 K, 9009 kPa, x2 = 0.0551	716.73
323.05 K, 10008 kPa, x2 = 0.0551	717.66
323.05 K, 11036 kPa, x2 = 0.0551	718.47
323.05 K, 11995 kPa, x2 = 0.0551	719.35
323.05 K, 13035 kPa, x2 = 0.0551	720.16
